Laboratory results published in US8236339B2, “Therapeutic delivery of carbon monoxide” (priority 2001, dated 2012).
Like-named read-outs stand apart in the source and are kept apart here.

Assays:
[1] = tested on: Rat vascular smooth muscle cells; test: Cell viability of vascular smooth muscle cells (colorimetric assay); assay type: cell-based; details: 0-100 μM, 24 h in complete medium
Method: Rat vascular smooth muscle cells were obtained from the Coriell Cell Repository (Camden, N.J., USA) and grown in Dulbecco's […] (MEM) supplemented with 20% foetal calf serum, 2×MEM vitamins, 2×MEM non-essential and essential amino acids, penicillin (100 units/ml) and streptomycin (0.1 mg/ml). Confluent cells were treated with different concentrations of metal carbonyl (introduced as DMSO solution—see section B) for various times and cell viability was assessed using a colorimetric assay kit from Promega (Madison, Wis., USA) as previously described (47) after 3 or 24 h incubation, or after 3 h exposure to the agents followed by 21 h incubation in complete media. Results are expressed as the mean±s.e.m. of 6 independent experiments and differences were considered statistically significant at P<0.05 (*).

[2] = tested on: deoxymyoglobin (deoxy-Mb); test: Light-induced CO release diffusing through a membrane into myoglobin solution; assay type: biochemical, horse; details: for MbCO formation upon illumination: carbonyl solution exposed to cold light, gas diffusing through membrane
Method: Therefore release of CO was induced by exposing these metal carbonyl complexes to a cold light source and allowing the gas to diffuse through a membrane before reacting with myoglobin as shown in FIG. 1.
Five hundred microliters of iron pentacarbonyl ([Fe(CO)5], 99.9%) or 1 ml of dimanganese decacarbonyl ([Mn2(CO)10], 13 mM in DMSO) (see also chemical structure) were placed as carbonyl solution 2 in a plastic tube 1. A cell culture insert 3 (Costar) was sealed on top in order to create two separate chambers with a 0.6 cm air space between the solution 2 and an insert membrane 6 (Anapore™ 0.4 μm). 1.5 ml of deoxy-Mb solution (66 μM) was placed in the insert which was covered with Parafilm™ 5. The carbonyl solution was then exposed to cold light from a source 7 to stimulate CO release, allowing the gas to diffuse through the membrane 6 into the myoglobin solution 4. Aliquots of the myoglobin solution 4 were taken at different times and the conversion of deoxy-Mb to MbCO measured spectrophotometrically.

isolated rat hearts = details: L-NAME 25 μM perfusion
Method: Langendorff heart preparations were performed using male Lewis rats (300-350 g) as previously described by our group (35). […] (pH 7.4). Coronary perfusion pressure (CPP), a parameter indicative of coronary vessel contractility, was continuously measured by a pressure transducer connected to the aortic cannula and data analyzed with an Acknowledge software (BIOPAC System Inc.).
Hearts removed either from control rats (vehicle-treated) or from animals that were pre-treated with the heme oxygenase-1 inducer hemin (75 μmol/kg, i.p.) the day before, were initially equilibrated for 20 min on the Langendorff apparatus and then perfused with L-NAME (25 μM final concentration) to elicit vasoconstriction. The extent of CPP increase by L-NAME was also monitored over time in hemin-treated animals that received a heme oxygenase inhibitor (SnPPIX, 40 μmol/kg) 1 h prior to heart excision and in control hearts that were perfused with buffer supplemented with [Mn2(CO)10] (13 μM final concentration). Since [Mn2(CO)10] releases CO only by photodissociation, Krebs buffer containing [Mn2(CO)10] was exposed to a cold light source immediately before entering the aortic cannula.

[3] = tested on: deoxymyoglobin (deoxy-Mb); test: Myoglobin assay: conversion of deoxy-Mb to MbCO on direct addition of metal carbonyl; assay type: biochemical, horse; details: direct addition to myoglobin solution (66 μM), no light
Method: The release of CO from metal carbonyl complexes was assessed spectrophotometrically by measuring the conversion of deoxymyoglobin (deoxy-Mb) to carbonmonoxy myoglobin (MbCO). MbCO has a distinctive absorption spectrum between 500 and 600 nm, and changes at 540 nm were used to quantify the amount of CO liberated. Myoglobin solutions (66 μM final concentration) were prepared freshly by dissolving the protein in 0.04 M phosphate buffer (pH 6.8). Sodium dithionite (0.1%) was added to convert myoglobin to deoxy-Mb prior to each reading. All the spectra were measured using a Helios a spectrophotometer.
Various metal carbonyl complexes were tested for their ability to elicit MbCO formation when added directly to a deoxy-Mb solution. To different extents, [Ru(CO)3Cl2]2, [Ru(CO)2(DMSO)2Cl2], [Ru(CO)3Cl2(cytosine)] and […] all released CO when added directly to the Mb solution.
The metal carbonyl complex was solubilized in DMSO (9.7 mM stock solution), aliquots of 2 to 32 μl were added directly to 1 ml of deoxy-Mb solutions (66 μM) and absorption spectrum determined immediately after mixing the samples by inversion.

HO-1 = test: Expression of heme oxygenase-1 in rat hearts (immunostaining, Northern blot); assay type: in vivo; details: 24 h after hemin treatment, i.p.
Method: For immunohistochemistry analysis, sections of heart muscles (5 μm thickness) were treated with 0.3% H2O2 in methanol to block endogenous peroxidase activity. Immunohistochemical staining was performed using rabbit polyclonal antibody against HO-1 (1:1000 dilution) as previously described (23). The presence of HO-1 was indicated by the development of a brown color. For Northern blot analysis, cardiac tissue was ground in a mortar under liquid nitrogen and suspended in guanidinium thiocyanate lysis buffer, Total RNA was then extracted using a modification of the method described by Chomczynski and Sacchi (49). RNA was run on a 1.3% denaturing agarose gel containing 2.2 M formaldehyde and transferred onto a nylon membrane overnight. The membrane was hybridized using [α-^32P]dCTP-labelled cDNA probes to rat HO-1 and GAPDH genes and bands analyzed using a densitometer as previously described (23, 50).
Hearts were removed from Lewis rats 24 h after treatment with vehicle (control) or hemin ([…], i.p.) and immunostaining for HO-1 was assessed. For Northern blot analysis, rats were treated with hemin (75 μmol/kg, i.p.) and hearts removed at different time points to assess HO-1 mRNA levels (+ve, positive control).

[4] = L-NAME-induced increase in mean arterial pressure in anaesthetised Lewis rats; assay type: in vivo, rat; details: L-NAME 30 μmol/kg i.v.; [Ru(CO)3Cl2]2 60 μmol/kg i.v. 1 h before; hemin 75 μmol/kg i.p. 24 h before; SnPPIX 40 μmol/kg i.p.
Method: Lewis rats (280-350 g) were anaesthetised by intramuscular injection of 1 ml/kg Hypnorm (fentanyl 0.315 mg/ml and fluanisone 10 mg/ml) followed 5 min later by an intraperitoneal injection of 5 mg/kg diazepam. Specially designed femoral artery and venous catheters were then surgically implanted as previously described (40). The arterial cannula was connected to a Grass pressure transducer and blood pressure monitored continuously using a polygraph recorder. Experiments were conducted on anaesthetized animals and recordings were made within 30 min of the surgical procedure.
Control rats (vehicle-treated) and animals that were pre-treated with hemin (75 μmol/kg, i.p) 24 h prior to blood pressure monitoring were then administered with an intravenous injection of 30 μmol/Kg L-NAME to elicit an increase in mean arterial pressure. The extent of blood pressure increase by L-NAME was also monitored over time in hemin-treated animals that received SnPPIX (40 μmol/kg, i.p.) and in control rats previously injected with [Ru(CO)3Cl2]2 (60 μmol/kg, i.v.). In these two groups, SnPPIX or [Ru(CO)3Cl2]2 were administered to animals 1 h prior to L-NAME injection.

Row | Structure (SMILES) | cytotoxicity on smooth muscle cells [1] | time to complete saturation of the myoglobin solution ([2]; 13 μmol/ml, continuous exposure to light) | MbCO formation upon illumination [2] | effect on L-NAME-mediated vasoconstriction / rise in CPP (isolated rat hearts; listed as (Mn2(CO)10)) | effect on L-NAME-mediated vasoconstriction / rise in CPP (isolated rat hearts; listed as [Mn2(CO10]) | MbCO formation / CO release when added directly to deoxy-Mb solution [3] | HO-1 protein and mRNA expression in hearts (HO-1) | effect on L-NAME-mediated vasoconstriction / rise in CPP (isolated rat hearts) | effect on L-NAME-induced increase in blood pressure [4]
1 | [C-]#[O+].[C-]#[O+].[C-]#[O+].[C-]#[O+].[C-]#[O+].[C-]#[O+].[C-]#[O+].[C-]#[O+].[C-]#[O+].[C-]#[O+].[Mn].[Mn] [[Mn2(CO)10], dimanganese decacarbonyl] | no major cytotoxicity | approximately 40 min | gradual increase in MbCO formation observed over time | unaffected | significantly delayed vasoconstriction and maintained CPP at much lower levels at the end of perfusion | did not result in any appreciable formation of carbonmonoxy myoglobin |  |  | 
2 | C=CC1=C(C)c2cc3[n-]c(cc4[n-]c(cc5nc(cc1n2)C(C)=C5C=C)c(C)c4CCC(=O)O)c(CCC(=O)O)c3C.[Cl-].[Fe+3] [hemin, ferriprotoporphyrin IX chloride] |  |  |  |  |  |  | highly expressed | markedly attenuated | significant suppression
3 | [C-]#[O+].[C-]#[O+].[C-]#[O+].[C-]#[O+].[C-]#[O+].[Fe] [[Fe(CO)5], iron pentacarbonyl] |  |  | gradual increase in MbCO formation observed over time |  |  | did not result in any appreciable formation of carbonmonoxy myoglobin |  |  | 
